Assay results published in patent US11370798B2 (Vertex Pharmaceuticals Incorporated, priority 2012, dated 2022).

What follows are compounds tested on HCT116 colorectal cancer cells (assay: Cisplatin sensitization assay (96 h cell viability MTS)). Conditions: compound and Cisplatin added simultaneously, Cisplatin sensitization value.
Format: cell-based
Procedure: Compounds can be screened for their ability to sensitize HCT116 colorectal cancer cells to Cisplatin using a 96 h cell viability (MTS) assay. […] Compounds and Cisplatin are then both added simultaneously to the cell media in 2-fold serial dilutions from a top final concentration of 10 μM as a full matrix of concentrations in a final cell volume of 200 μl, and the cells are then incubated at 37° C. in 5% CO2. After 96 h, 40 μl of MTS reagent (Promega G358a) is added to each well and the cells are incubated for 1 h at 37° C. in 5% CO2.
Compounds with a Cisplatin sensitization value of <0.02 μM are marked with “+++.” Compounds with a Cisplatin sensitization value>0.02 μM but <0.2 μM are marked with “++.” Compounds with a Cisplatin sensitization value>0.2 μM but <5 μM are marked with “+.”
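Note: Test-compound concentration that lowers the Cisplatin IC50 by a set fold.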

| Compound | Cisplatin Sensitization Assay |
| --- | --- |
| Nc1nn2cc(F)cnc2c1C(=O)Nc1cncc(F)c1N1CCC(C(=O)N2CC3(COC3)C2)CC1 [I-G-14, N-(4-(4-(2-oxa-6-azaspiro[3.3]heptane-6-carbonyl)piperidin-1-yl)-5-fluoropyridin-3-yl)-2-amino-6-fluoropyrazolo[1,5-a]pyrimidine-3-carboxamide] | +++ (Cisplatin sensitization value of <0.02 μM) |
| Cc1ncnn1-c1c(F)cncc1NC(=O)c1c(N)nn2cc(F)cnc12 [I-N-242, 2-amino-6-fluoro-N-(5-fluoro-4-(5-methyl-1H-1,2,4-triazol-1-yl)pyridin-3-yl)pyrazolo[1,5-a]pyrimidine-3-carboxamide] | + (Cisplatin sensitization value>0.2 μM but <5 μM) |
| CN1CCC[C@H]1C(=O)N1CCN(c2ccncc2NC(=O)c2c(N)nn3cc(F)cnc23)CC1 [I-N-198, (S)-2-amino-6-fluoro-N-(4-(4-(1-methylpyrrolidine-2-carbonyl)piperazin-1-yl)pyridin-3-yl)pyrazolo[1,5-a]pyrimidine-3-carboxamide] | ++ (Cisplatin sensitization value>0.02 μM but <0.2 μM) |
| Nc1nn2cc(Cl)cnc2c1C(=O)Nc1cnccc1-n1ccnc1 [I-N-29, N-(4-(1H-imidazol-1-yl)pyridin-3-yl)-2-amino-6-chloropyrazolo[1,5-a]pyrimidine-3-carboxamide] | ++ (Cisplatin sensitization value>0.02 μM but <0.2 μM) |
| Nc1nn2cc(F)cnc2c1C(=O)Nc1cncc(F)c1C1=CCN(C2COC2)CC1 [I-C-12, 2-amino-6-fluoro-N-(5-fluoro-1′-(oxetan-3-yl)-1′,2′,3′,6′-tetrahydro-[4,4′-bipyridin]-3-yl)pyrazolo[1,5-a]pyrimidine-3-carboxamide] | +++ (Cisplatin sensitization value of <0.02 μM) |
| Nc1nn2cc(F)cnc2c1C(=O)Nc1cnccc1N1CCN(C2COC2)CC1 [I-N-1, 2-amino-6-fluoro-N-(4-(4-(oxetan-3-yl)piperazin-1-yl)pyridin-3-yl)pyrazolo[1,5-a]pyrimidine-3-carboxamide] | ++ (Cisplatin sensitization value>0.02 μM but <0.2 μM) |
| Nc1nn2cc(F)cnc2c1C(=O)Nc1cncc(Cl)c1N1CCC(C(=O)N2CCN3CCC2C3)CC1 (stereo not drawn) [I-G-69, N-(4-(4-(1,4-diazabicyclo[3.2.1]octane-4-carbonyl)piperidin-1-yl)-5-chloropyridin-3-yl)-2-amino-6-fluoropyrazolo[1,5-a]pyrimidine-3-carboxamide] | +++ (Cisplatin sensitization value of <0.02 μM) |
| Nc1nn2cc(F)cnc2c1C(=O)Nc1cnccc1O[C@@H]1CN2CCC1CC2 [Compound I-0-10, (S)-2-amino-6-fluoro-N-(4-(quinuclidin-3-yloxy)pyridin-3-yl)pyrazolo[1,5-a]pyrimidine-3-carboxamide] | +++ (Cisplatin sensitization value of <0.02 μM) |
| Nc1nn2cc(Cl)cnc2c1C(=O)Nc1cnccc1O[C@@H]1CCCNC1 [I-O-81, (R)-2-amino-6-chloro-N-(4-(piperidin-3-yloxy)pyridin-3-yl)pyrazolo[1,5-a]pyrimidine-3-carboxamide] | ++ (Cisplatin sensitization value>0.02 μM but <0.2 μM) |
| CN1CC(N2CCN(C(=O)C3CCN(c4c(F)cncc4NC(=O)c4c(N)nn5cc(F)cnc45)CC3)CC2)C1 [I-G-96, 2-amino-6-fluoro-N-(5-fluoro-4-(4-(4-(1-methylazetidin-3-yl)piperazine-1-carbonyl)piperidin-1-yl)pyridin-3-yl)pyrazolo[1,5-a]pyrimidine-3-carboxamide] | +++ (Cisplatin sensitization value of <0.02 μM) |
| Nc1nn2cc(Cl)cnc2c1C(=O)Nc1cncc(F)c1N1CCC(C(=O)N2CCN3CCC2CC3)CC1 [I-G-87, N-(4-(4-(1,4-diazabicyclo[3.2.2]nonane-4-carbonyl)piperidin-1-yl)-5-fluoropyridin-3-yl)-2-amino-6-chloropyrazolo[1,5-a]pyrimidine-3-carboxamide] | +++ (Cisplatin sensitization value of <0.02 μM) |
| Nc1nn2cc(F)cnc2c1C(=O)Nc1cncc2c1CCNC2 [I-C-7, 2-amino-6-fluoro-N-(5,6,7,8-tetrahydro-2,7-naphthyridin-4-yl)pyrazolo[1,5-a]pyrimidine-3-carboxamide] | ++ (Cisplatin sensitization value>0.02 μM but <0.2 μM) |
| CN(C)C(=O)C1CN(c2ccncc2NC(=O)c2c(N)nn3cc(F)cnc23)CCO1 (stereo not drawn) [I-N-234, 4-(3-(2-amino-6-fluoropyrazolo[1,5-a]pyrimidine-3-carboxamido)pyridin-4-yl)-N,N-dimethylmorpholine-2-carboxamide] | + (Cisplatin sensitization value>0.2 μM but <5 μM) |
| CN1CCC[C@@H]1COc1ccncc1NC(=O)c1c(N)nn2cc(Cl)cnc12 [I-O-49, (R)-2-amino-6-chloro-N-(4-((1-methylpyrrolidin-2-yl)methoxy)pyridin-3-yl)pyrazolo[1,5-a]pyrimidine-3-carboxamide] | + (Cisplatin sensitization value>0.2 μM but <5 μM) |
| CN1CCC(Oc2ccncc2NC(=O)c2c(N)nn3cc(F)cnc23)CC1 [I-O-12, 2-amino-6-fluoro-N-(4-((1-methylpiperidin-4-yl)oxy)pyridin-3-yl)pyrazolo[1,5-a]pyrimidine-3-carboxamide] | +++ (Cisplatin sensitization value of <0.02 μM) |
| CN1CCN(C(=O)C2(C#N)CCN(c3c(F)cncc3NC(=O)c3c(N)nn4cc(F)cnc34)CC2)CC1 [I-G-25, 2-amino-N-(4-(4-cyano-4-(4-methylpiperazine-1-carbonyl)piperidin-1-yl)-5-fluoropyridin-3-yl)-6-fluoropyrazolo[1,5-a]pyrimidine-3-carboxamide] | +++ (Cisplatin sensitization value of <0.02 μM) |
| CN(C)CCOc1cc(C(F)(F)F)ncc1NC(=O)c1c(N)nn2cc(Cl)cnc12 [I-O-71, 2-amino-6-chloro-N-(4-(2-(dimethylamino)ethoxy)-6-(trifluoromethyl)pyridin-3-yl)pyrazolo[1,5-a]pyrimidine-3-carboxamide] | + (Cisplatin sensitization value>0.2 μM but <5 μM) |
| Nc1nn2cc(Cl)cnc2c1C(=O)Nc1cnccc1N1CCN(C2CC2)CC1 [I-N-64, 2-amino-6-chloro-N-(4-(4-cyclopropylpiperazin-1-yl)pyridin-3-yl)pyrazolo[1,5-a]pyrimidine-3-carboxamide] | +++ (Cisplatin sensitization value of <0.02 μM) |
| CC1(S(C)(=O)=O)CCN(c2ccncc2NC(=O)c2c(N)nn3cc(F)cnc23)CC1 [I-N-243, 2-amino-6-fluoro-N-(4-(4-methyl-4-(methylsulfonyl)piperidin-1-yl)pyridin-3-yl)pyrazolo[1,5-a]pyrimidine-3-carboxamide] | +++ (Cisplatin sensitization value of <0.02 μM) |
| CC(=O)N1CCC2(CCN(c3ccncc3NC(=O)c3c(N)nn4cc(F)cnc34)CC2)C1 [I-N-257, N-(4-(2-acetyl-2,8-diazaspiro[4.5]decan-8-yl)pyridin-3-yl)-2-amino-6-fluoropyrazolo[1,5-a]pyrimidine-3-carboxamide] | +++ (Cisplatin sensitization value of <0.02 μM) |
| CN1CCN(C2CCN(c3c(F)cncc3NC(=O)c3c(N)nn4cc(F)cnc34)CC2)C(=O)C1 [I-N-151, 2-amino-6-fluoro-N-(5-fluoro-4-(4-(4-methyl-2-oxopiperazin-1-yl)piperidin-1-yl)pyridin-3-yl)pyrazolo[1,5-a]pyrimidine-3-carboxamide] | + (Cisplatin sensitization value>0.2 μM but <5 μM) |
| Nc1nn2cc(F)cnc2c1C(=O)Nc1cnccc1N1CCN2C(=O)CC[C@@H]2C1 [I-N-258, (R)-2-amino-6-fluoro-N-(4-(6-oxohexahydropyrrolo[1,2-a]pyrazin-2(1H)-yl)pyridin-3-yl)pyrazolo[1,5-a]pyrimidine-3-carboxamide] | ++ (Cisplatin sensitization value>0.02 μM but <0.2 μM) |
| COCCn1cncc1-c1ccncc1NC(=O)c1c(N)nn2cc(F)cnc12 [I-C-83, 2-amino-6-fluoro-N-(4-(1-(2-methoxyethyl)-1H-imidazol-5-yl)pyridin-3-yl)pyrazolo[1,5-a]pyrimidine-3-carboxamide] | ++ (Cisplatin sensitization value>0.02 μM but <0.2 μM) |
| CC(C)(C#N)c1cnc2c(C(=O)Nc3cnccc3N3CCN(C4COC4)CC3)c(N)nn2c1 [I-N-142, 2-amino-6-(2-cyanopropan-2-yl)-N-(4-(4-(oxetan-3-yl)piperazin-1-yl)pyridin-3-yl)pyrazolo[1,5-a]pyrimidine-3-carboxamide] | ++ (Cisplatin sensitization value>0.02 μM but <0.2 μM) |
| CN(C)C(=O)C1CCN(c2c(F)cncc2NC(=O)c2c(N)nn3cc(F)cnc23)CC1 [I-G-29, 2-amino-N-(4-(4-(dimethylcarbamoyl)piperidin-1-yl)-5-fluoropyridin-3-yl)-6-fluoropyrazolo[1,5-a]pyrimidine-3-carboxamide] | +++ (Cisplatin sensitization value of <0.02 μM) |
| Nc1nn2cc(F)cnc2c1C(=O)Nc1cnccc1N1CCN2C(=O)COCC2C1 (stereo not drawn) [I-N-136, 2-amino-6-fluoro-N-(4-(4-oxohexahydropyrazino[2,1-c][1,4]oxazin-8(1H)-yl)pyridin-3-yl)pyrazolo[1,5-a]pyrimidine-3-carboxamide] | ++ (Cisplatin sensitization value>0.02 μM but <0.2 μM) |
| CN1CCN(C(=O)c2ccc(-c3ccncc3NC(=O)c3c(N)nn4cc(F)cnc34)cn2)CC1 [I-C-19, 2-amino-6-fluoro-N-(6-(4-methylpiperazine-1-carbonyl)-[3,4′-bipyridin]-3′-yl)pyrazolo[1,5-a]pyrimidine-3-carboxamide] | ++ (Cisplatin sensitization value>0.02 μM but <0.2 μM) |
